Holding throughout (experiment): NCI tumour cell line growth inhibition, 48 h
In assay [1] the test system is DMS-273.
Assay [2] has as its system DMS-114.
Assay [3] relates to RXF 631.
In assay [4] the test system is KM-20L2.
In assay [5] the test system is SNB-78.
The test system of assay [6] is NCI/ADR-RES.
For assay [7], the system named is MCF7.
Assay [8] deals with MDA-MB-231.
For assay [9], the system named is Hs-578T.

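Compound exposure: 48 hours, 5 concentrations, 96-well plates. GI50 is the concentration that inhibits growth by half.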 Active and inactive are the calls of the source. No stated cut-off is given here; in the data, active = GI50 up to about 1.1 µM and inactive = higher. Where only a bound is given, the exact number is not on record here.

Take `O=C(CCc1cc(-c2ccco2)n(-c2ccc([N+](=O)[O-])cc2[N+](=O)[O-])n1)Nc1ccccc1`: the GI50 in assay [1], in assay [2], in assay [3], in [4] and in assay [5] was > 100 µM (inactive) each time.
For `COc1ccc(CN(CCN(C)C)c2ccccn2)cc1.Cn1c(=O)c2[nH]c(Br)nc2n(C)c1=O`, the GI50 in [2], in [4] and in assay [5] was > 100 µM (inactive) each time.
As for `COc1ccc2c(c1)c(Cc1c(C)n(C)c3ccc(OC)cc13)c(C)n2C`, the GI50 in assay [1], in assay [2], in assay [4] and in assay [5] was > 100 µM (inactive) in each case.
For `O=C1OC(c2ccccc2)=N/C1=C/NC(Cc1c[nH]cn1)C(=O)O` (stereo unspecified), the GI50 in [1], in assay [2], in assay [4] and in assay [5] was > 100 µM (inactive) throughout.
As for `O=C1CCC2(c3ccc(F)cc3)Nc3ncccc3N12` (stereo unspecified), the GI50 in [4] and in assay [5] was > 100 µM (inactive) each time.
As to `Cc1cc(=O)cc2sc3c(C)cccc3nc1-2`, the results for the GI50 in assay [1], in assay [3] and in [5] were 83.6 µM (inactive), > 100 µM (inactive) and 53.6 µM (inactive), respectively.
For the compound `CC1=C(O)C(=O)C2C(=O)C1C(C)C2c1ccc(Cl)cc1` (stereo unspecified), the GI50 in assay [1], in assay [3] and in assay [5] was > 100 µM (inactive) throughout.
Consider `Cc1cc(=O)n(-c2cc3cccccc-3n2)[nH]1`, for which the GI50 in assay [2] is 2.38 µM (inactive); in assay [4], 38.4 µM (inactive).
On to `O=C(CC1Sc2ccccc2NC1=O)Nc1cccc(Cl)c1` (stereo unspecified), for which the GI50 was 28.2 µM (inactive) in assay [1], 34.2 µM (inactive) in [2], 38.2 µM (inactive) in [4] and 47.9 µM (inactive) in assay [5].
Turning to `Cc1ccc(Nc2n[nH]c(=S)s2)cc1`, the GI50 in assay [6], in assay [7], in [8] and in [9] was > 100 µM (inactive) each time.
Take `CCOC(=O)NC(=O)c1cn(CCOC(=O)NCCCCCCNC(=O)OCCn2cc(C(=O)NC(=O)OCC)c(=O)[nH]c2=O)c(=O)[nH]c1=O`: the GI50 in [1], in assay [2], in assay [4] and in assay [5] was > 100 µM (inactive) throughout.
Take `CCCC/C=C1\CCC(CN2CCCCC2)C1=O` (stereo unspecified): the GI50 was 6.65 µM (inactive) in assay [2]; 8.11 µM (inactive) in assay [3]; 15.2 µM (inactive) in [4]; > 100 µM (inactive) in assay [6]; > 100 µM (inactive) in assay [7]; > 100 µM (inactive) in assay [8]. In addition, the GI50 is > 100 µM (inactive) in assay [9] and 4.2 µM (inactive) in assay [5].
For `CC12N=NNC1C(=O)NC2=O` (stereo unspecified), the GI50 in assay [1], in assay [2], in assay [4] and in [5] was > 100 µM (inactive) in each case.
On to `CCCCCCC(=O)C/C(=N/NC(N)=S)C(=O)NC1C2CC3CC(C2)CC1C3` (stereo unspecified), for which the GI50 in assay [4] and in [5] was > 100 µM (inactive) each time.
Regarding `COc1cc(/C=C2/SC(c3ccccc3)N(c3ccccc3)C2=O)cc(OC)c1OC` (stereo unspecified), the GI50 is 48.2 µM (inactive) in assay [6], 37.8 µM (inactive) in assay [7], > 100 µM (inactive) in assay [8] and > 100 µM (inactive) in [9].
As to `CC1(C)COC(c2c(-c3ccccc3)noc2C[S+]([O-])c2ccccc2)=N1` (stereo unspecified), the GI50 in [1] is 31.2 µM (inactive); in assay [2], 21.9 µM (inactive); in assay [4] it was 46.3 µM (inactive); in assay [5] it was 7.48 µM (inactive).
With `C[C@@]1(CO)[C@H](O)CC[C@@]2(C)[C@H]1CC[C@H]1C[C@@H]3C[C@@]12CC[C@@]3(O)COC(=O)CN`, the GI50 in [1] was 0.486 µM (active); in assay [8] it was 34.8 µM (inactive); in assay [9], 53.1 µM (inactive).
In the case of `CN1C(=O)C2C=CC1C1CCC2N(C)C1=O` (stereo unspecified), the GI50 in assay [1], in [2], in assay [3] and in [5] was > 100 µM (inactive) each time.
Take `CN1CCc2c1nc(-c1ccc(Cl)cc1)c1c2N(C)CC1`: the GI50 in assay [1] is 14 µM (inactive); in assay [2], 10.8 µM (inactive); in assay [4], 0.514 µM (active); in assay [5], 28.7 µM (inactive).
On the same counts, the results for `CC(C)(C)[Si](C)(C)OC1C(=O)C[C@H]2CCCC[C@@H]12` (stereo partly specified) are > 100 µM (inactive), > 100 µM (inactive), > 100 µM (inactive) and > 100 µM (inactive).
Consider `CC[C@@H](C)[C@@H]1NC(=O)C(C(C)=O)=C1O`, for which the GI50 in assay [1] is 24.4 µM (inactive); in assay [2], 31.8 µM (inactive); in [3], 15.1 µM (inactive); in assay [4], 23.2 µM (inactive); in [5], 23.3 µM (inactive).
As to `C=C1C(=O)OC2C[C@H](C)C3CC(=O)C(C)=C3CC12` (stereo partly specified), the GI50 in assay [1] was 17.1 µM (inactive); in assay [2], 15 µM (inactive); in [4], 14.8 µM (inactive); in [5], 16 µM (inactive).
On the same counts, the results for `CCCCCC/C=C1\CCC(CN2CCOCC2)C1=O` (stereo unspecified) are 15.9 µM (inactive), 17.3 µM (inactive), 20.2 µM (inactive) and 21.8 µM (inactive).
As to `Cn1c(=O)cc2[nH]c3ccccc3n2c1=O`, the GI50 is 25.5 µM (inactive) in assay [1]; > 100 µM (inactive) in assay [2]; 29.6 µM (inactive) in [3]; 77.4 µM (inactive) in assay [4]; 86.5 µM (inactive) in [5].
On the same counts, the results for `NC1CCC[C@H]1O` (stereo partly specified) are > 100 µM (inactive), > 100 µM (inactive), > 100 µM (inactive), > 100 µM (inactive) and > 100 µM (inactive).
For `COc1cccc2c1C(=O)c1c(O)c3c(c(O)c1C2=O)C[C@@](O)(C(=O)CO)CC3OC1CC(NCCOCC(OC(C)=O)OC(C)=O)C(O)C(C)O1` (stereo partly specified), the GI50 in assay [2] and in [4] was < 0.01 µM (active) throughout.
`COC(=O)[C@@]1(C(C)CC(=O)O)CCCCC1=O` (stereo partly specified): the GI50 in assay [1] was 19.9 µM (inactive); in assay [2], 82.8 µM (inactive); in assay [4], > 100 µM (inactive); in assay [5], > 100 µM (inactive).
Take `CC(C)(C)OC(=O)C#CC[C@H]1CCCC1/C=C/C(O)=C1/C(=O)NC(CCCNC(=O)OC(C)(C)C)C1=O` (stereo partly specified): the GI50 in [1] was 26.1 µM (inactive); in assay [2], 21.3 µM (inactive); in [3], 19.4 µM (inactive); in [4], 25.1 µM (inactive).
As for `O=C(NN1C(=O)C(Cl)C1c1c(O)ccc2ccccc12)c1ccccc1O` (stereo unspecified), the GI50 in [1], in assay [2] and in [5] was > 100 µM (inactive) throughout.
On to `Cn1cnc([N+](=O)[O-])c1Sc1nc2ccccc2o1`, for which the GI50 in assay [1] is 3.01 µM (inactive); in [2], 2.14 µM (inactive); in assay [3] it was 4.05 µM (inactive); in [4] it was 4.66 µM (inactive); in [5] it was 13.1 µM (inactive).

The values above are taken from ChEMBL document CHEMBL1201862, “PubChem BioAssay data set” (2004).
